Assay results as given in ChEMBL document CHEMBL3400081, “Exploration of benzamidochromenone derivatives with conformational restrictor as interleukin-5 inhibitors” (Bioorg Med Chem, 2015).

Target: T1, Interleukin-5 (Mus musculus) (UniProt P04401)
T1 sequence (whole entry): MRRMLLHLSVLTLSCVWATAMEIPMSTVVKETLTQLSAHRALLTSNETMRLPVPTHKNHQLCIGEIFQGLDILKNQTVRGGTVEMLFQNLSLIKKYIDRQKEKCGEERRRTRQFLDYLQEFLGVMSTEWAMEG
Assay: Inhibition of mouse IL5-mediated mouse Y16 cell proliferation at 30 uM after 48 hrs by WST1 assay

inhibition [%] | Structure (SMILES)
75 | CC(=O)OCc1c(-c2ccccc2)oc2ccc(NC(=O)C3CCCCC3)cc2c1=O
23 | O=C(Nc1ccc2oc(-c3ccccc3)c(CO)c(=O)c2c1)c1cnccn1
71 | CC(C)C(=O)OCc1c(C2CCCCC2)oc2ccc(NC(=O)c3ccccc3)cc2c1=O
90 | O=C(Nc1ccc2oc(C3CCCCC3)c(CO)c(=O)c2c1)c1ccccc1
5 | CC(C)(C)C(=O)OCc1c(C2CCCCC2)oc2ccc(NC(=O)c3ccccc3)cc2c1=O
25 | CC(=O)OCc1c(C2CCCCC2)oc2ccc(NC(=O)Nc3ccccc3)cc2c1=O
78 | CC(=O)OCc1c(C2CCCCC2)oc2ccc(NCc3ccccc3)cc2c1=O
80 | CC(=O)OCc1c(C2CCCCC2)oc2ccc(NC(=O)C3CCCCC3)cc2c1=O
35 | O=C(Nc1ccc2oc(-c3ccccc3)c(CO)c(=O)c2c1)C1CCCCC1
19 | O=C(Nc1ccc2oc(-c3ccc(F)cc3)c(CO)c(=O)c2c1)c1ccccc1
5 | CC(=O)OCc1c(C2CCCCC2)oc2ccc(NS(=O)(=O)c3ccccc3)cc2c1=O
9 | O=C(Nc1ccc2oc(C3CCCCC3)c(CO)c(=O)c2c1)C1CCCCC1
12 | CC(=O)OCc1c(-c2ccc(F)cc2)oc2ccc(NC(=O)c3ccccc3)cc2c1=O
15 | CC(=O)OCc1c(-c2ccccc2)oc2ccc(NC(=O)c3cnccn3)cc2c1=O
71 | O=C(Nc1ccc2oc(-c3ccccc3)c(CO)c(=O)c2c1)c1ccccc1
79 | CC(=O)OCc1c(-c2ccccc2)oc2ccc(NC(=O)c3ccccc3)cc2c1=O
95 | CC(=O)OCc1c(C2CCCCC2)oc2ccc(NC(=O)c3ccccc3)cc2c1=O
